Measured values taken from patent publication US20240109937A1, “BINDING PEPTIDES AND USES THEREOF” (The Johns Hopkins University, priority 2021, published 2024).
Read-outs that look alike come from different tables or passages of the source. Bridge positions count the residues as written; N and C are the ends. Square brackets hold non-standard residues; d marks the D form. Peptide text beside a SMILES is read from it. hArg = N=C(N)NCCCC[C@H](N)C(=O)O

Tests used:
PPIA [1] = molecular target: T1, PPIA (Homo sapiens, UniProt P62937); settings: read-out: KD, binds and sequesters cytosolic PPIA; cited from earlier work
T1 sequence (P62937 whole entry, species assumed): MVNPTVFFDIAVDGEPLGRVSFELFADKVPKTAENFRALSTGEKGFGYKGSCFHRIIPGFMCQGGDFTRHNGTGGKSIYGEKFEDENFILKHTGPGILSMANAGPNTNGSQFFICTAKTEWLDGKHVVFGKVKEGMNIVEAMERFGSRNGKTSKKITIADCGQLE

PPIA [2] = molecular target: T1, PPIA; assay: KD determination of cyclic peptides derived from Formula (I); type: binding
CAPN1 [3] = molecular target: T2, CAPN1 (Mus musculus, UniProt O35350); assay: Calpain activity assay (Suc-LLVY-AMC cleavage) in HL-1 cells under Ca2+ overload; type: cell-based
T2 construct: endogenous in cells; host or cells: HL-1 cardiomyocytes
T2 sequence (O35350 1-713): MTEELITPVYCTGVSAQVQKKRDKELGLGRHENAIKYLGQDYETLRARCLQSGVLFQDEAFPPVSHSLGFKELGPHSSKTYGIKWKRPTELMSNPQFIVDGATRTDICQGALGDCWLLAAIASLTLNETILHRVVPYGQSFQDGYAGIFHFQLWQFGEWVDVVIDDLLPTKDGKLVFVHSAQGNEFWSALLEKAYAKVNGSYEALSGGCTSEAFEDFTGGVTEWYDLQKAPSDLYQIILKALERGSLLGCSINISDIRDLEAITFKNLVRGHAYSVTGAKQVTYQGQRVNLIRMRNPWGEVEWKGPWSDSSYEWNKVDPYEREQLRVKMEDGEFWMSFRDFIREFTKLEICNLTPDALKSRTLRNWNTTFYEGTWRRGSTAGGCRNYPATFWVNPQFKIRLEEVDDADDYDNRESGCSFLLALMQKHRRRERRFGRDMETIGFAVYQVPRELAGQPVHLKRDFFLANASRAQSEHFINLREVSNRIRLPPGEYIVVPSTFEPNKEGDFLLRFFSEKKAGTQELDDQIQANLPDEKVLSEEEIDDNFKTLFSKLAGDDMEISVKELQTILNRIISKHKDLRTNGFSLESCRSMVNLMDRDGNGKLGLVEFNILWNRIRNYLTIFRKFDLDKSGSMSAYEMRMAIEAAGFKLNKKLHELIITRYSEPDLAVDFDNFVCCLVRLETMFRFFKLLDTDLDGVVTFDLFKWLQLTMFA
T2 sequence (O88456 1-268 partner): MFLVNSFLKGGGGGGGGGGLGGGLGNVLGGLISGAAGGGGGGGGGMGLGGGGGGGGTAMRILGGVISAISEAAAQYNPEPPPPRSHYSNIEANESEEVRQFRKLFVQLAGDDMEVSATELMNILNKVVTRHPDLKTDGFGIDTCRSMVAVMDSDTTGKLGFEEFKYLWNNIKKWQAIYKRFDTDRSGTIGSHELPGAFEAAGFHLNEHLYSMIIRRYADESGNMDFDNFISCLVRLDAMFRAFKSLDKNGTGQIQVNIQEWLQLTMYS
Description: Calcium (Ca^2+) Overload Protocol: Rapid and sustained intracellular Ca^2+ overload was obtained by adding the Ca^2+-ionophore, calcimycin (1 μM), to HL-1 cells incubated for 10 min in HBS KV medium (1.26 mM CaCl2, 0.81 mM MgSO4, 0.44 mM KH2PO4, 142 mM KCl, 0.27 mM K2HPO4, 5.55 mM D-glucose, 1 mM Na3VO4, 20 mM Hepes pH 7.4). To monitor intracellular Ca^2+ variations, HL-1 cells were loaded with 5 μM Fluo-4 FF AM (Molecular Probes) in HBS Na (Sigma) for 30 min before the media was replaced with HBS KV. […] Calpain (CAPN) Activity Assay: […] HL-1 cells were grown in 24-well plates and incubated for 30 min in HBS Na (Sigma) with 25 μM Suc-LLVY-AMC (SEQ ID NO: 81) and 0.01% pluronic F127 (Molecular Probes) before treatment protocols. […] CAPN activity was inhibited via the addition of either calpeptin (Tocris) or PD150606 (Calbiochem) in the incubation medium.

HL-1 cells [4] = assay: Cell viability assay (LDH release) in HL-1 cells under Ca2+ overload; type: cell-based, mouse
Description: Calcium (Ca^2+) Overload Protocol: Rapid and sustained intracellular Ca^2+ overload was obtained by adding the Ca^2+-ionophore, calcimycin (1 μM), to HL-1 cells incubated for 10 min in HBS KV medium (1.26 mM CaCl2, 0.81 mM MgSO4, 0.44 mM KH2PO4, 142 mM KCl, 0.27 mM K2HPO4, 5.55 mM D-glucose, 1 mM Na3VO4, 20 mM Hepes pH 7.4). To monitor intracellular Ca^2+ variations, HL-1 cells were loaded with 5 μM Fluo-4 FF AM (Molecular Probes) in HBS Na (Sigma) for 30 min before the media was replaced with HBS KV. […] Cell Viability Assay: HL-1 plasma membrane integrity was assessed by measuring lactate dehydrogenase (LDH) release in the culture supernatant. An enzymatic assay evaluated LDH activity. Samples of the cell-free culture supernatant were collected at indicated times in Figures/Figure Legends, while cells were lysed in 1% (w/v) Triton X-100 at the end of each experiment to estimate the remaining cellular content of LDH. The LDH activity at each time point was expressed as a percentage of total LDH activity.

HL-1 cells [5] = assay: Mitochondrial membrane potential (JC-1) assay in HL-1 cells; type: cell-based, mouse; settings: Calcimycin 1 μM in HBS KV medium
Description: Calcium (Ca^2+) Overload Protocol: Rapid and sustained intracellular Ca^2+ overload was obtained by adding the Ca^2+-ionophore, calcimycin (1 μM), to HL-1 cells incubated for 10 min in HBS KV medium (1.26 mM CaCl2, 0.81 mM MgSO4, 0.44 mM KH2PO4, 142 mM KCl, 0.27 mM K2HPO4, 5.55 mM D-glucose, 1 mM Na3VO4, 20 mM Hepes pH 7.4). To monitor intracellular Ca^2+ variations, HL-1 cells were loaded with 5 μM Fluo-4 FF AM (Molecular Probes) in HBS Na (Sigma) for 30 min before the media was replaced with HBS KV. […] Mitochondrial Membrane Potential (MMP) Assay: MMP was determined using the potentiometric probe, JC-1. JC-1 (Molecular Probes) is a cationic carbocyanine dye that selectively accumulates in polarized mitochondria, where it forms red fluorescent aggregates (excitation 485/emission 590 nm). Upon mitochondrial depolarization, JC-1 is released into the cytosol, whereas a monomer emits green fluorescence (excitation 485 nm/emission 520 nm). Therefore, MMP variations were monitored as the ratio of fluorescent emissions at 590/520 nm using a fluorimeter plate reader (Fluoroskan Ascent Labsystem). HL-1 cells were incubated with JC-1 (1.5 μM) for 30 min at 37° C. in HBS Na before treatment protocols.

HL-1 cells [6] = assay: Intracellular Ca2+ (Fluo4 FF fluorescence) in HL-1 cells; type: cell-based, mouse; settings: Calcimycin 1 μM in HBS KV medium
Description: (§1) Calcium (Ca^2+) Overload Protocol: Rapid and sustained intracellular Ca^2+ overload was obtained by adding the Ca^2+-ionophore, calcimycin (1 μM), to HL-1 cells incubated for 10 min in HBS KV medium (1.26 mM CaCl2, 0.81 mM MgSO4, 0.44 mM KH2PO4, 142 mM KCl, 0.27 mM K2HPO4, 5.55 mM D-glucose, 1 mM Na3VO4, 20 mM Hepes pH 7.4). To monitor intracellular Ca^2+ variations, HL-1 cells were loaded with 5 μM Fluo-4 FF AM (Molecular Probes) in HBS Na (Sigma) for 30 min before the media was replaced with HBS KV.

CAPN1 [7] = molecular target: T2, CAPN1; assay: Western blot of CAPN1 in purified mitochondria from HL-1 cells under Ca2+ overload; type: cell-based; settings: Ca2+ overload (HBS KVC), calpeptin 50 μM, PD150606 10 μM
Description: as §1, with “KV. The fluorescence was recorded using a fluorimeter plate reader (Fluoroskan Ascent Labsystem) at wavelength settings of 485/530 nm for excitation/emission, respectively.” for “KV.”
Mitochondria Isolation Protocol: Mitochondria were isolated from HL-1 cells in percoll density gradient. Briefly, 30×10^6 adherent cells were harvested with Trypsin/EDTA, centrifuged at 500×g for 10 min, washed in buffer A (100 mM sucrose, 1 mM EGTA, 20 mM MOPS, pH 7.4, and 1 mg/mL BSA) before cell disruption with a Dounce homogenizer. The suspension was centrifuged twice at 500× g for 5 min and the resulting supernatant at 10,000×g for 10 min at 4° C. The pellet was re-suspended in buffer B (300 mM sucrose, 1 mM EGTA, 20 mM MOPS pH 7.4, 1 mg/mL BSA), and the homogenate was layered on a two-phase (25% and 40%) percoll density gradient. […]

[8] = Ca2+ overload in HBS KV medium, 5 mM EGTA in incubation media
[9] = Calcimycin 1 μM in HBS KV medium, dose-dependent response

In the case of “QSVGVSSGKLLIKLKDGRKVETDHI [AIF (370-394), Linear peptide, 25 amino acids long]”, the Kd (PPIA [1]) is listed as 12 µM.

For `CC[C@H](C)[C@@H]1NC(=O)[C@@H](N)CSSC[C@@H](C(N)=O)NC(=O)[C@H](C(C)C)NC(=O)[C@H](CCCCN)NC(=O)[C@H](CCCNC(=N)N)NC(=O)CNC(=O)[C@H](CC(=O)O)NC(=O)[C@H](CCCCNC(=N)N)NC(=O)[C@H](CC(C)C)NC(=O)[C@H](CCCCN)NC1=O` [X4: hR] (H-CIKL[hArg]DGRKVC-NH2; disulfide 1-11), the Kd (PPIA [2]) was over 1000 µM.

With `CC[C@H](C)[C@@H]1NC(=O)[C@@H](N)CSSC[C@@H](C(N)=O)NC(=O)[C@H](C(C)C)NC(=O)[C@H](CCCCNC(=N)N)NC(=O)[C@H](CCCNC(=N)N)NC(=O)CNC(=O)[C@H](CC(=O)O)NC(=O)[C@H](CCCCN)NC(=O)[C@H](CC(C)C)NC(=O)[C@H](CCCCN)NC1=O` [X8: hR] (H-CIKLKDGR[hArg]VC-NH2; disulfide 1-11) the Kd (PPIA [2]) was over 1000 µM.

For `O=C(O)CN(CCOCCOCCN(CC(=O)O)CC(=O)O)CC(=O)O` [EGTA], the CAPN1 activation (CAPN1 [3]; [8]) was “attenuated” and the “cell death (LDH release)” value (HL-1 cells [4]; [8]) was “attenuated”.

For `O=C(O)/C(S)=C/c1ccc(I)cc1` [PD150606], the “Ca2+ overload-induced decrease in mitochondrial membrane potential (MMP)” value (HL-1 cells [5]) was “reduced ability to restore MMP”, the “reduction in Ca2+ overload-induced CAPN1 substrate hydrolysis” value (CAPN1 [3]; [9]) was about 60% and the “reduction in cell death (LDH release)” value (HL-1 cells [4]; [9]) was about 15%. For the same compound, the “kinetics of cytosolic Ca2+ accumulation” value (HL-1 cells [6]) was “neither of them had an impact” and the “mitochondrial CAPN1 translocation” value (CAPN1 [7]) was “failed to prevent”.
